The structures appear in SMILES notation. pEC50, pIC50: −log10 of the molar value. Structures can show the parent of a compound that is named as a salt. A value given as a limit tells only on which side of the number the result lay.

Results on 17 molecules are retold here after US8178534B2, “cMET inhibitors” (Takeda Pharmaceutical Company Limited, priority 2008, dated 2012).

For one assay, the system named is A549. Briefly: Inhibition of cell viability (MTS), A549 (negative control line). In kind it is cell-based. As to conditions: A549 cells (negative control), 96 hours incubation. As for the experimental part:
(§1) Cells were maintained at 37° C. in a humidified atmosphere containing 5%-8% CO2 following the instructions of the supplier (American Type Culture Collection (Rockville, Md.)). Inhibition of cell viability was determined for a panel of tumor cell lines (MKN45, EBC1 and A549), using the soluble tetrazolium salt, MTS (Promega, Madison, Wis.). Cells were seeded at 2,000-7,500 cells/well in 96-well tissue culture plates and were allowed to attach for approximately 24 hours prior to addition of compounds or DMSO vehicle. […] Cells were treated in duplicate with test compounds. Compounds were serially diluted (1:2.5) from column 1 to 11 and column 12 contained DMSO vehicle. Compounds were diluted into cell growth medium then compound solution was added to cells. Equal amounts of DMSO were added to cells (final concentration is 0.5%). After background correction and normalization against DMSO-treated cells, EC50 values were calculated using non-linear curve-fitting of the cell viability as a function of compound concentration. The MKN45 and EBC1 cell lines contain high levels of phospho-Met and are dependent on cMET for proliferation, whereas the A549 line is used as negative control.
(§2) EC50 values may be calculated by non-linear curve fitting of the compound concentrations and fluorescence intensities to the standard EC50 equation.

The subject of another assay is MKN45. Briefly: Inhibition of cell viability (MTS), MKN45. In kind it is cell-based. As to conditions: MKN45 cells, 96 hours incubation. As for the experimental part: as §1, §2
The next assay has as its system EBC1. Briefly: Inhibition of cell viability (MTS), EBC1. In kind it is cell-based. As to conditions: EBC1 cells, 96 hours incubation. As to the method: as §1, §2
The target in assay [1] is T1, cMET enzyme (amino acids 1023-1360) (Homo sapiens, UniProt P08581).
T1 construct: The cMET enzyme (amino acids 1023-1360) nominally at 24 μM was held at −80° C. until use; His tag (N, cleaved yes); made in house; host or cells: Sf9 cells
The assay is described as follows: Determination of inhibition of cMET (capillary electrophoresis, phosphorylated peptide product). Conditions: 1.2 nM cMET, 50 μM ATP, 2 μM FL-2 peptide, 2 hours room temperature. The format is biochemical. As to the method:
The inhibitory property of a compound relative to cMET catalysis was determined by use of capillary electrophoresis with fluorescence quantification of a phosphorylated peptide product for cMET. The cMET enzyme (amino acids 1023-1360) nominally at 24 μM was held at −80° C. until use, in a buffer containing 25 mM Tris-HCl pH 8.5, 150 mM NaCl, 3 mM DTT and 10% glycerol. […] Following purification, the tag was removed and enzyme concentrated. […] To activate the enzyme fully, frozen cMET was thawed quickly and activated with the addition of assay buffer (50 mM HEPES pH 7.5, 10 mM NaCl, 10 mM MgCl2, 0.01% Brij® 35), 1.25 mM ATP, 5 mM MgCl2 and 5 mM DTT at a cMET concentration of 2.4 μM followed by a 30 minute incubation at room temperature. […] Next, cMET enzyme (1.2 nM final) was added and the system incubated at room temperature for 20 minutes. Catalysis was initiated by the addition of ATP (50 μM final). Assays were incubated at room temperature for 2 hours then quenched by the addition of EDTA. Phosphorylated peptide product was quantified by monitoring fluorescence during capillary electrophoresis with Caliper LifeSciences LabChip 3000 under the following settings: base pressure=−0.1 psi, screen pressure=−1.2 psi, downstream voltage=−500 V, upstream voltage=−2300 V, chip type=TC372. The elution buffer was identical to the assay buffer except for the absence of DTT, FL-2 and ATP and the addition of 0.1% coating reagent (Caliper). […] Peak height was quantified and used to determine enzyme velocities.
IC50 values were calculated by non-linear least squares curve fitting of the standard IC50 equation to background-corrected cMET velocity versus compound concentration.

T1 sequence (P08581 1023-1360): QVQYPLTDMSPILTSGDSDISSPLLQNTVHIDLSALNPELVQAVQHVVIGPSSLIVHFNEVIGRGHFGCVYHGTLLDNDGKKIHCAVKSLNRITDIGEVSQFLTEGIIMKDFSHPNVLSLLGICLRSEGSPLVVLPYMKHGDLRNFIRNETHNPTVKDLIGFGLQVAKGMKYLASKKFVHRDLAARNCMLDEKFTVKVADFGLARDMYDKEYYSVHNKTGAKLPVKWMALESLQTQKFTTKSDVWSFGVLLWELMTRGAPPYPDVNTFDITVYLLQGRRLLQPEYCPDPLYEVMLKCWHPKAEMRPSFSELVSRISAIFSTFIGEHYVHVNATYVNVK

By pEC50 is commonly meant the negative decadic logarithm of the EC50, by convention in mol/L. Read a high pEC50 as a low EC50. Usually pIC50 stands for −log10 of the IC50, conventionally taken in molar units. Regarding `C[C@@H](c1ccc2nc(NC(=O)C3CC3)cn2n1)c1nnc2ccc(-c3cnn(C)c3)cn12` [Compound 50, (S)—N-(6-(1-(6-(1-methyl-1H-pyrazol-4-yl)-[1,2,4]triazolo[4,3-a]pyridin-3-yl)ethyl)imidazo[1,2-b]pyridazin-2-yl)cyclopropanecarboxamide], the pEC50 with A549 (Homo sapiens, A549, 96 h) was below 4.30; in the assay with MKN45 (Homo sapiens, MKN-45, 96 h), 7.23 to 7.52; in the assay with EBC1 (Homo sapiens, EBC-1, 96 h), above 7.52. For the same molecule, the pIC50 in assay [1] is above 7.52.

Take `N#Cc1ccc(-c2ccc3nnc(C(F)(F)c4ccc5nc(NC(=O)C6CC6)cn5n4)n3c2)cc1` [Compound 83, N-(6-((6-(4-cyanophenyl)-[1,2,4]triazolo[4,3-a]pyridin-3-yl)difluoromethyl)imidazo[1,2-b]pyridazin-2-yl)cyclopropanecarboxamide]: the pEC50 in the assay with A549 (Homo sapiens, A549, 96 h) was below 4.30; in the assay on MKN45 (Homo sapiens, MKN-45, 96 h) it was above 7.52; in the assay with EBC1 (Homo sapiens, EBC-1, 96 h), above 7.52. For the same molecule, the pIC50 in assay [1] was above 7.52.

With `O=C(Nc1cn2nc(C(F)(F)c3nnc4ccc(-c5cccc(F)c5)cn34)ccc2n1)C1CC1` [Compound 77, N-(6-(difluoro(6-(3-fluorophenyl)-[1,2,4]triazolo[4,3-a]pyridin-3-yl)methyl)imidazo[1,2-b]pyridazin-2-yl)cyclopropanecarboxamide], the pEC50 is below 4.30 in the assay on A549 (Homo sapiens, A549, 96 h); above 7.52 with MKN45 (Homo sapiens, MKN-45, 96 h); above 7.52 in the assay on EBC1 (Homo sapiens, EBC-1, 96 h). The same molecule had a pIC50 in assay [1] above 7.52.

As to `CNC(=O)c1ccc(-c2ccc3nnc(C(C)c4ccc5nc(NC(=O)C6CC6)cn5n4)n3c2)cc1F` (centres unmarked) [Compound 58, 4-(3-(1-(2-(cyclopropanecarboxamido)imidazo[1,2-b]pyridazin-6-yl)ethyl)-[1,2,4]triazolo[4,3-a]pyridin-6-yl)-2-fluoro-N-methylbenzamide], the pEC50 with A549 (Homo sapiens, A549, 96 h) is below 4.30; in the assay with MKN45 (Homo sapiens, MKN-45, 96 h) it was above 7.52; in the assay with EBC1 (Homo sapiens, EBC-1, 96 h) it was above 7.52. In assay [1], this molecule gave a pIC50 above 7.52.

As for `O=C(Nc1cn2nc(Sc3nnc4ccccn34)ccc2n1)C1CC1` [3 (TFA Salt), N-(6-([1,2,4]triazolo[4,3-a]pyridin-3-ylthio)imidazo[1,2-b]pyridazin-2-yl)cyclopropanecarboxamide], the pEC50 was 4.60 to 5.10 in the assay on A549, 6.20 to 6.60 with MKN45 and 6.70 to 7.00 in the assay on EBC1. The same molecule gave a pIC50 in assay [1] below 7.00.

On to `N#Cc1cccc(-c2ccc3nnc(Sc4ccc5nc(NC(=O)C6CC6)cn5n4)n3c2)c1` [Compound 104, N-(6-(6-(3-cyanophenyl)-[1,2,4]triazolo[4,3-a]pyridin-3-ylthio)imidazo[1,2-b]pyridazin-2-yl)cyclopropanecarboxamide], for which the pEC50 in the assay on A549 (Homo sapiens, A549, 96 h) was below 4.30; in the assay on MKN45 (Homo sapiens, MKN-45, 96 h), above 7.52; in the assay with EBC1 (Homo sapiens, EBC-1, 96 h) it was above 7.52. In assay [1], the pIC50 is above 7.52.

Turning to `O=C(Nc1cn2nc(Sc3nnc4ccc(-c5csc(N6CCOCC6)n5)cn34)ccc2n1)C1CC1` [Compound 110, N-(6-(6-(2-morpholinothiazol-4-yl)-[1,2,4]triazolo[4,3-a]pyridin-3-ylthio)imidazo[1,2-b]pyridazin-2-yl)cyclopropanecarboxamide], the pEC50 was below 4.30 in the assay on A549 (Homo sapiens, A549, 96 h); 6.60 to 7.00 in the assay with MKN45 (Homo sapiens, MKN-45, 96 h); 7.23 to 7.52 in the assay on EBC1 (Homo sapiens, EBC-1, 96 h). The molecule also gave a pIC50 in assay [1] of 7.23 to 7.52.

In the case of `Cn1cc(-c2ccc3nnn(Cc4ccc5nc(NC(=O)C6CC6)cn5n4)c3c2)cn1` [13 (HCl Salt), N-(6-((6-(1-methyl-1H-pyrazol-4-yl)-1H-benzo[d][1,2,3]triazol-1-yl)methyl)imidazo[1,2-b]pyridazin-2-yl)cyclopropanecarboxamide], the pEC50 with A549 was 4.60 to 5.10; in the assay on MKN45, 6.60 to 7.00; with EBC1 (Homo sapiens, EBC-1, 96 h), above 7.46. In assay [1], the pIC50 is 7.23 to 7.52.

Turning to `O=C(Nc1cn2nc(C(F)(F)c3nnc4ccc(-c5ccncc5)cn34)ccc2n1)C1CC1` [Compound 79, N-(6-(difluoro(6-(pyridin-4-yl)-[1,2,4]triazolo[4,3-a]pyridin-3-yl)methyl)imidazo[1,2-b]pyridazin-2-yl)cyclopropanecarboxamide], the pEC50 was below 4.30 with A549 (Homo sapiens, A549, 96 h); above 7.52 in the assay with MKN45 (Homo sapiens, MKN-45, 96 h); above 7.52 with EBC1 (Homo sapiens, EBC-1, 96 h). The pIC50 in assay [1] was 7.00 to 7.22.

For the molecule `COc1ccc(-c2ccc3nnc(C(F)(F)c4ccc5nc(NC(=O)C6CC6)cn5n4)n3c2)cc1` [Compound 75, N-(6-(difluoro(6-(4-methoxyphenyl)-[1,2,4]triazolo[4,3-a]pyridin-3-yl)methyl)imidazo[1,2-b]pyridazin-2-yl)cyclopropanecarboxamide], the pEC50 with A549 (Homo sapiens, A549, 96 h) is 4.60 to 5.10; with MKN45 (Homo sapiens, MKN-45, 96 h), above 7.52; in the assay on EBC1 (Homo sapiens, EBC-1, 96 h) it was above 7.52. For the same molecule, in assay [1], the pIC50 was above 7.52.

For the molecule `CC(c1ccc2nc(NC(=O)C3CC3)cn2n1)c1nnc2ccc(-c3ccc(S(C)(=O)=O)cc3)cn12` (centres unmarked) [Compound 60, N-(6-(1-(6-(4-(methylsulfonyl)phenyl)-[1,2,4]triazolo[4,3-a]pyridin-3-yl)ethyl)imidazo[1,2-b]pyridazin-2-yl)cyclopropanecarboxamide], the pEC50 in the assay with A549 (Homo sapiens, A549, 96 h) was below 4.30; in the assay with MKN45 (Homo sapiens, MKN-45, 96 h) it was 7.00 to 7.22; in the assay on EBC1 (Homo sapiens, EBC-1, 96 h), 7.00 to 7.22. For the same molecule, the pIC50 in assay [1] is above 7.52.

For `O=C(Nc1cn2nc(C(F)(F)c3nnc4ccc(-c5cnoc5)cn34)ccc2n1)C1CC1` [Compound 46, N-(6-(difluoro(6-(isoxazol-4-yl)-[1,2,4]triazolo[4,3-a]pyridin-3-yl)methyl)imidazo[1,2-b]pyridazin-2-yl)cyclopropanecarboxamide], the pEC50 was below 4.30 in the assay on A549 (Homo sapiens, A549, 96 h); 7.00 to 7.22 in the assay with MKN45 (Homo sapiens, MKN-45, 96 h); 7.00 to 7.22 in the assay on EBC1 (Homo sapiens, EBC-1, 96 h). Besides, the pIC50 in assay [1] was 7.23 to 7.52.

As for `O=C(Nc1cn2nc(Sc3nnc4ccc(Cl)cn34)ccc2n1)C1CC1` [Compound 9, N-(6-(6-chloro-[1,2,4]triazolo[4,3-a]pyridin-3-ylthio)imidazo[1,2-b]pyridazin-2-yl)cyclopropanecarboxamide], the pEC50 was 4.60 to 5.10 with A549 (Homo sapiens, A549, 96 h); 6.20 to 6.60 with MKN45 (Homo sapiens, MKN-45, 96 h); 6.70 to 7.00 in the assay on EBC1 (Homo sapiens, EBC-1, 96 h). Also, the pIC50 in assay [1] is 7.00 to 7.22.

`N#Cc1cccc(-c2ccc3nnc(C(F)(F)c4ccc5nc(NC(=O)C6CC6)cn5n4)n3c2)c1` [Compound 82, N-(6-((6-(3-cyanophenyl)-[1,2,4]triazolo[4,3-a]pyridin-3-yl)difluoromethyl)imidazo[1,2-b]pyridazin-2-yl)cyclopropanecarboxamide]: the negative-log EC50 (pEC50) in the assay on A549 (Homo sapiens, A549, 96 h) is below 4.30; with MKN45 (Homo sapiens, MKN-45, 96 h), above 7.52; in the assay on EBC1 (Homo sapiens, EBC-1, 96 h), above 7.52. The pIC50 in assay [1] was above 7.52.

Turning to `CC(c1ccc2nc(NC(=O)C3CC3)cn2n1)c1nnc2ccc(-c3ccc(F)cc3)cn12` (centres unmarked) [Compound 55, N-(6-(1-(6-(4-fluorophenyl)-[1,2,4]triazolo[4,3-a]pyridin-3-yl)ethyl)imidazo[1,2-b]pyridazin-2-yl)cyclopropanecarboxamide], the pEC50 is below 4.30 in the assay with A549 (Homo sapiens, A549, 96 h); above 7.52 in the assay on MKN45 (Homo sapiens, MKN-45, 96 h); above 7.52 in the assay on EBC1 (Homo sapiens, EBC-1, 96 h). The pIC50 in assay [1] is above 7.52.

On to `CC(c1ccc2nc(NC(=O)C3CC3)cn2n1)c1nnc2ccc(-c3ccc(C#N)c(F)c3)cn12` (centres unmarked) [Compound 72, N-(6-(1-(6-(4-cyano-3-fluorophenyl)-[1,2,4]triazolo[4,3-a]pyridin-3-yl)ethyl)imidazo[1,2-b]pyridazin-2-yl)cyclopropanecarboxamide], for which the pEC50 with A549 (Homo sapiens, A549, 96 h) is below 4.30; in the assay on MKN45 (Homo sapiens, MKN-45, 96 h), above 7.52; in the assay with EBC1 (Homo sapiens, EBC-1, 96 h), above 7.52. In assay [1], this molecule showed a negative logarithm of the IC50 (pIC50) above 7.52.

With `CS(=O)(=O)c1ccc(-c2ccc3nnc(C(F)(F)c4ccc5nc(NC(=O)C6CC6)cn5n4)n3c2)cc1` [Compound 85, N-(6-(difluoro(6-(4-(methylsulfonyl)phenyl)-[1,2,4]triazolo[4,3-a]pyridin-3-yl)methyl)imidazo[1,2-b]pyridazin-2-yl)cyclopropanecarboxamide], the pEC50 in the assay on A549 (Homo sapiens, A549, 96 h) is below 4.30; in the assay on MKN45 (Homo sapiens, MKN-45, 96 h) it was above 7.52; in the assay on EBC1 (Homo sapiens, EBC-1, 96 h), above 7.52. For the same molecule, in assay [1], the pIC50 was above 7.52.
